The results in this text go back to ChEMBL document CHEMBL5149996, “Structure-Based Optimization and Discovery of M3258, a Specific Inhibitor of the Immunoproteasome Subunit LMP7 (β5i)” (J Med Chem, 2021).

The subject of data set [1] is 20S immunoproteasome beta-5i subunit. Kind of data set: Selectivity ratio of IC50 for cytotoxicity against Wistar Han rat hepatocytes to IC50 for inhibition of 20S immunoproteasome beta-5i subunit in human PBMC. It is filed as toxicity. The note with it: read-out: Ratio IC50.
Data set [2] in a line: Half life in iv dosed mouse. It is filed as ADME, organism-based. The conditions noted are these: in vivo.
Data set [3] can be described thus: Distribution coefficient, log D of the compound. The class given is physicochemical. The conditions noted are these: octanol/water.
For data set [4], the target named is T1, Proteasome subunit beta type-8 (Homo sapiens, UniProt P28062).
T1 sequence (P28062 whole entry): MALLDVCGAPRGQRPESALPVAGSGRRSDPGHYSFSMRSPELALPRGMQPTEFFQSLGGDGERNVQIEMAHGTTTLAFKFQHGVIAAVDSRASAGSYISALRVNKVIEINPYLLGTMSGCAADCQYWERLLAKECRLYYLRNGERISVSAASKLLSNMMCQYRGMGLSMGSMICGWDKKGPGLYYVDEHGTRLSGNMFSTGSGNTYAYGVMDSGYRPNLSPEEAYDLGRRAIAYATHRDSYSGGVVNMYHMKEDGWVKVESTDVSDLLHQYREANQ
The data set is described as follows: Inhibition of 20S immunoproteasome beta-5i subunit in human PBMC using Ac-ANW-luciferin substrate preincubated for 2 hrs followed by substrate addition and measured after 30 mins by luminometric analysis. The class given is cell-based.

Data set [5] deals with T2, Proteasome subunit beta type-7 (Homo sapiens, UniProt Q99436).
T2 sequence (Q99436 whole entry): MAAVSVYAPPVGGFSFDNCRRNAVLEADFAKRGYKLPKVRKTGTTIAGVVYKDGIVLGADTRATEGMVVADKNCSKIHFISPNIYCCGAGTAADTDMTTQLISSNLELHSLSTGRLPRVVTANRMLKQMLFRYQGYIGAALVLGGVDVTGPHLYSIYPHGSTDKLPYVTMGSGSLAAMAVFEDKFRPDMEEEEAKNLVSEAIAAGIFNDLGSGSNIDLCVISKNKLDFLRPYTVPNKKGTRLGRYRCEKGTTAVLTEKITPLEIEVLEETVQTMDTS
Kind of data set: Inhibition of human 20S proteasome beta2 subunit using Ac-RLR-AMC as substrate preincubated for 2 hrs followed by substrate addition and measured after 1 hr by fluorescence intensity assay.

Data set [6] concerns the target T1, Proteasome subunit beta type-8. The data set is described as follows: Inhibition of human 20S immunoproteasome beta-5i subunit using Suc-LLVY-AMC as substrate preincubated for 2 hrs followed by substrate addition and measured after 1 hr by fluorescence intensity assay.
A short description of data set [7]: Oral bioavailability in mouse at 10 mg/kg. It is filed as ADME, organism-based. The note with it: in vivo.
The target in data set [8] is 5-hydroxytryptamine receptor 2A (Homo sapiens) (UniProt P28223). The data set is described as follows: Displacement of [125I](+/-)DOI from human recombinant 5HT2A receptor at 10 uM incubated for 60 mins by radiometric scintillation counting analysis. A general note: Displacement assays read how much labelled ligand stays bound in the presence of the test substance.
A short description of data set [9]: Lipophilicity, log P of the compound. The class given is physicochemical. The conditions noted are these: octanol/water.
Data set [10] is described as follows: Intrinsic clearance in mouse liver microsomes measured per mg protein. The class given is ADME, Microsome. The note with it: read-out: CLH.
Data set [11] can be described thus: Cytotoxicity against human primary hepatocytes assessed as depletion of ATP content incubated for 48 to 72 hrs by CellTiter-Glo luminescent assay. It is filed as toxicity, cell-based, Hepatocyte.
The target of data set [12] is T3, Proteasome subunit beta type-6 (Homo sapiens, UniProt P28072).
T3 sequence (P28072 whole entry): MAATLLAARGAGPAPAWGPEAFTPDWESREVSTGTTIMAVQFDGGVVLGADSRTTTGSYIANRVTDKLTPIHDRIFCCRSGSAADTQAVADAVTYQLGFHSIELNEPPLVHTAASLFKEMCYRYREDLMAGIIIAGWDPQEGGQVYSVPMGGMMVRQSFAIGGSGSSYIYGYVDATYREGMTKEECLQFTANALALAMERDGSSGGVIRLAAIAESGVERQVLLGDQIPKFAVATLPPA
The data set is described as follows: Inhibition of human 20S […] beta1 subunit using Ac-nLPnLD-AMC as substrate preincubated for 2 hrs followed by substrate addition and measured after 1 hr by fluorescence intensity assay.

In data set [13] the test system is U-266. Kind of data set: In vivo inhibition of LMP7 activity in tumor lysates of H2d Rag2 mouse xenografted with human U266B1 cells at 0.3 mg/kg, po administered once daily using (Ac-ANW)2R110 as substrate measured at 1 to 6 hrs post-last drug dosage by fluorescence intensity assay. The class given is functional, organism-based. The note with it: Neoplasm, time 1-6 hrs.

Data set [14] in a line: Cytotoxicity against Wistar Han rat hepatocytes assessed as depletion of ATP content incubated for 48 to 72 hrs by CellTiter-Glo luminescent assay. The class given is toxicity, cell-based, Hepatocyte.
The nature of data set [15]: Toxicity in H2d Rag2 mouse xenografted with human U266B1 cells assessed as change in body weight at 0.3 to 1 mg/kg, po administered once daily and measured for 21 days. The conditions noted are these: in vivo, 504 h, dose 0.3-1 mg/kg, time 21 day. The class given is organism-based, U-266.
Data set [16] relates to U-266. The data set is described as follows: In vivo inhibition of LMP7 activity in tumor lysates of H2d Rag2 mouse xenografted with human U266B1 cells at 0.3 mg/kg, po administered as single dose using (Ac-ANW)2R110 as substrate measured after 1 to 6 hrs by fluorescence intensity assay. The conditions noted are these: Neoplasm, time 1-6 hrs. It is filed as functional, organism-based. For orientation: In xenograft studies the graft and the host belong to different species.

The target of data set [17] is T4, Proteasome subunit beta type-9 (Homo sapiens, UniProt P28065).
T4 sequence (P28065 whole entry): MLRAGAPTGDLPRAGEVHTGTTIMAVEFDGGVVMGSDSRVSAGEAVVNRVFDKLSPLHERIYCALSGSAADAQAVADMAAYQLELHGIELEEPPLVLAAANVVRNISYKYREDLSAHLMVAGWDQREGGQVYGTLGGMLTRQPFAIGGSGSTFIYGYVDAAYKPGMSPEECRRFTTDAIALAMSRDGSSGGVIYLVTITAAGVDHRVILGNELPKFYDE
The data set is described as follows: Inhibition of human 20S immunoproteasome beta-1i subunit using (Ac-PAL)2R110 as substrate preincubated for 2 hrs followed by substrate addition and measured after 1 hr by fluorescence intensity assay.

For data set [18], the target named is T5, Proteasome Macropain subunit MB1 (Homo sapiens, UniProt P28074).
T5 sequence (P28074 whole entry): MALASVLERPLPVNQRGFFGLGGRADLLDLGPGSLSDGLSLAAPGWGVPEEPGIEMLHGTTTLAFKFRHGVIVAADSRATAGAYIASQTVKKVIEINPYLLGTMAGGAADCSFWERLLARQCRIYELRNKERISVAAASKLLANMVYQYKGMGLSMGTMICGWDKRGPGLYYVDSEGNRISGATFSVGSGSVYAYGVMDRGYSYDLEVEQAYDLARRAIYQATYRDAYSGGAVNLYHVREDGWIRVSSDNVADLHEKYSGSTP
Kind of data set: Inhibition of human 20S proteasome beta5 subunit using Suc-LLVY-AMC as substrate preincubated for 2 hrs followed by substrate addition and measured after 1 hr by fluorescence intensity assay.

The species entered for data set [19] is Homo sapiens. The data set is described as follows: Selectivity ratio of IC50 for inhibition of human 20S proteasome beta5 subunit to IC50 for inhibition of human 20S immunoproteasome beta-5i subunit.
Data set [20] can be described thus: Clearance in iv dosed mouse. The class given is ADME, organism-based. The note with it: in vivo.
Data set [21] can be described thus: Cytotoxicity against human HepG2 cells assessed as depletion of ATP content incubated for 48 to 72 hrs by CellTiter-Glo luminescent assay. The class given is toxicity, cell-based.
The nature of data set [22]: Intrinsic clearance in human liver microsomes measured per mg protein. The class given is ADME, Microsome. On the technique in general: Microsomes from liver hold many membrane-bound enzymes, among them those of drug oxidation.
The species named for data set [23] is Homo sapiens. The data set is described as follows: Selectivity ratio of IC50 for inhibition of 20S proteasome beta5 subunit in human A549 cells to IC50 for inhibition of 20S immunoproteasome beta-5i subunit in human PBMC. It is filed as cell-based.

The source made the active and inactive calls. The calls are words filed in the database; no cut-off is given here.

Chain of 5-hydroxytryptamine receptor 2A (Homo sapiens) (P28223 whole entry): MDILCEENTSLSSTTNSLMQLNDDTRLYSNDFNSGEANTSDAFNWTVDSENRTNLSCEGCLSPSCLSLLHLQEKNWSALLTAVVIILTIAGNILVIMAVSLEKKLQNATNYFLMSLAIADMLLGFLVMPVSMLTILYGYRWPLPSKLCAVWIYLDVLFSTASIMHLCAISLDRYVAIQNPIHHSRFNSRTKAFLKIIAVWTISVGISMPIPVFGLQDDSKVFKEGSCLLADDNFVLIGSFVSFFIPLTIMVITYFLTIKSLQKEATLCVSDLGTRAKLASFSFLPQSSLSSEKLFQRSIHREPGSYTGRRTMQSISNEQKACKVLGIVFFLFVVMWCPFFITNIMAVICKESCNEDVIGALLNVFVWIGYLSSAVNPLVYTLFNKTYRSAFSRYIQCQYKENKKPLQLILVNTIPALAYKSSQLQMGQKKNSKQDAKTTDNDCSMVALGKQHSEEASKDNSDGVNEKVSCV

In general, half-life refers to how long it takes for the measured level to halve. The low end stands for fast loss, the high end for slow loss. As a reminder, the logD is the decadic logarithm of the distribution of all forms, ionised or not, between an organic phase and buffer at a given pH. Read a low logD as lower lipophilicity. For orientation: IC50 means the concentration that inhibits the measured activity by half. As a reminder, the bioavailability is the share of a dose that reaches the circulation, judged against a reference dose that is usually intravenous. Higher therefore signals much systemic uptake. A word on the logP: it is a log measure of how a compound divides between an organic and an aqueous phase. In general, clearance refers to the volume of plasma or blood freed of the substance per unit of time. Higher therefore signals a high capacity for elimination. In the case of `O=C(N[C@@H](Cc1coc2ccccc12)B(O)O)[C@@H]1C[C@H]2CC[C@@H]1O2`, the selectivity ratio in [1] amounted to 10000. For the same molecule, the half-life in data set [2] is 1.71 h. Besides, the logD in [3] came out at 1.1. Moreover, the IC50 in data set [4] is 0.0034 µM; in data set [5], > 30 µM; in [6], 0.0036 µM; in [11], 91 µM; in data set [12] it was > 30 µM; in data set [14], 64 µM. The IC50 was > 30 µM in [17], 2.5 µM in data set [18] and 48 µM in [21]. The bioavailability in [7] amounted to 35%. Besides, the inhibition result in data set [8], in data set [13] and in data set [16] was “Active” in each case. The logP in data set [9] came to 2.34. Also, in data set [10], the microsomal CLint is 14 µL/min/mg. Also, the Activity result in [15] is on record as “Non-Toxic”. The Ratio IC50 was found to be 684 in data set [19] and 305 in data set [23]. The clearance in data set [20] was 3.17 mL/min/kg. Moreover, in data set [22], the CLH is < 10 µL/min/mg.
